Measured values from patent US11241441B2, “Formulations of lixivaptan for the treatment of polycystic disease” (PALLADIO BIOSCIENCES, INC., priority 2017, dated 2022).

Assays:
[1] = In-clinic pharmacokinetic study: plasma pharmacokinetics and dose proportionality; type: in vivo, human; details: 100 mg to 400 mg administered as 2 divided doses
Procedure: The primary objective of this study was to assess the pharmacokinetics and dose proportionality of lixivaptan over the dose range targeted for clinical use (e.g., 100 to 400 mg daily) using unit doses of 50 mg and multiples thereof given twice daily for 7.5 days.
Subjects received lixivaptan at total daily doses of 100 mg, 200 mg, or 400 mg (administered as 50, 100, and 200 mg Q12H). Subjects were to be enrolled into the study in two cohorts of 30 subjects, but actual cohort numbers were 23 and 34 subjects. Of the 57 subjects enrolled in the study, 27 were female (47.4%) and 30 were male (52.6%). The majority of subjects were White (35/57, 61.4%) and of Hispanic or Latino ethnicity (46/57, 80.7%). The overall mean age of subjects in the study was 33.6 (8.31) years, and the overall mean body mass index for subjects was 26.2 (3.79). There were to be approximately 20 subjects enrolled per dose level. An approximately equal number of males and females were enrolled at each dose level such that neither gender was represented by fewer than 8 subjects. The starting date for each cohort subjects was staggered by 7 days for logistical purposes. Screening evaluations were performed within 28 days prior to Day 1. […]

PCK rats = test: In vivo study of the effects of lixivaptan on PCK rats; parameters: species or system rat; details: for % kidney weight/body weight: both genders
Procedure: A study was performed that examined the effect of lixivaptan (0.5% or 1% w/w lixivaptan in ground rodent chow) on bodyweight, kidney weight, kidney cAMP, urine output, and serum electrolyte concentration in PCK rats, an orthologous animal model of Autosomal Recessive PKD that develops a phenotype reminiscent of ADPKD.
Experimental animals and study design. PCK rats were divided into control and treatment groups at four weeks of age (n=59, ˜10 animals per treatment group and gender). Lixivaptan was dissolved in DMSO and added to ground rodent chow (Regrind Labdiet 5053) at 0.5% or 1.0% concentration (w/w) by homogenous mixing, whereas control animals received the same diet without lixivaptan. Animals were exposed to control- or lixivaptan-diet for eight weeks and were sacrificed at twelve weeks of age.
Experimental Protocol. […] At the end of the dosing period, the animals were weighed and anesthetized with ketamine 90 mg/kg and xylazine 10 mg/kg, IP. Blood samples were obtained by cardiac puncture for determination of plasma electrolytes, creatinine and plasma urea levels. The right kidney and part of the liver were placed into pre-weighed vials containing 10% formaldehyde in phosphate buffer (pH 7.4). The tissues were embedded in paraffin for histological studies. The left kidneys were immediately frozen in liquid nitrogen for determination of cAMP.
Statistical Analysis. Comparisons between groups were analyzed using one-way or two-way analysis of variance (ANOVA) with least significant difference comparisons of the means or student's t-test as appropriate. Data were expressed as means±SD.

[2] = PCK rats, 0.5% lixivaptan, compared to control
[3] = PCK rats, 0.5% lixivaptan, compared to control, p=0.08

Cc1ccc(F)cc1C(=O)Nc1ccc(C(=O)N2Cc3cccn3Cc3ccccc32)c(Cl)c1 [Lixivaptan, 5-fluoro-2-methyl-N-[4-(5H-pyrrolo[2,1-C] [1,4]benzodiazepin-10(11H)-ylcarbonyl)-3-chlorophenyl]benzamide]
dose proportionality of pharmacokinetic parameters (Cmax, AUC(0-12)) [1]: proportional kinetics | 24 hr urine week 7 (PCK rats; PCK rats F, 0.5% Lixivaptan): 33.5 ± 8.6 mL | 24 hr urine week 10 (PCK rats; PCK rats F, 0.5% Lixivaptan): 47.7 ± 16.8 mL | % Kidney/Body Weight (PCK rats; PCK rats F, 0.5% Lixivaptan): 1.11 ± 0.10 % | % Liver/Body Weight (PCK rats; PCK rats F, 0.5% Lixivaptan): 5.72 ± 0.42% | Kidney Cyst Score (PCK rats; PCK rats F, 0.5% Lixivaptan): 7.1 ± 4.2 % | Kidney Fibrosis Score (PCK rats; PCK rats F, 0.5% Lixivaptan): 2.0 ± 1.1% | Liver Cyst Score (PCK rats; PCK rats F, 0.5% Lixivaptan): 3.7 ± 0.8% | Liver Fibrois Score (PCK rats; PCK rats F, 0.5% Lixivaptan): 2.7 ± 0.3% | Liver Weight (PCK rats; PCK rats F, 0.5% Lixivaptan): 14.5 ± 1.6 g | Plasma Creatinine (PCK rats; PCK rats F, 0.5% Lixivaptan): 0.64 ± 0.08 mg/dL | Plasma Sodium (PCK rats; PCK rats F, 0.5% Lixivaptan): 145 ± 2 mEq/L | Plasma Urea (PCK rats; PCK rats F, 0.5% Lixivaptan): 32.3 ± 3.9 mg/dL | Total Kidney Weight (PCK rats; PCK rats F, 0.5% Lixivaptan): 2.82 ± 0.33 g | 24 hr urine week 7 (PCK rats; PCK rats F, 1.0% Lixivaptan): 39.7 ± 14.2 mL | 24 hr urine week 10 (PCK rats; PCK rats F, 1.0% Lixivaptan): 54.8 ± 19.3 mL | % Kidney/Body Weight (PCK rats; PCK rats F, 1.0% Lixivaptan): 1.75 ± 0.99% | % Liver/Body Weight (PCK rats; PCK rats F, 1.0% Lixivaptan): 7.11 ± 2.61% | Kidney Cyst Score (PCK rats; PCK rats F, 1.0% Lixivaptan): 11.9 ± 3.1% | Kidney Fibrosis Score (PCK rats; PCK rats F, 1.0% Lixivaptan): 2.1 ± 0.8% | Liver Cyst Score (PCK rats; PCK rats F, 1.0% Lixivaptan): 6.2 ± 2.7% | Liver Fibrois Score (PCK rats; PCK rats F, 1.0% Lixivaptan): 4.1 ± 1.4% | Liver Weight (PCK rats; PCK rats F, 1.0% Lixivaptan): 16.8 ± 6.7 g | Plasma Creatinine (PCK rats; PCK rats F, 1.0% Lixivaptan): 0.68 ± 0.06 mg/dL | Plasma Sodium (PCK rats; PCK rats F, 1.0% Lixivaptan): 143 ± 3 mEq/L | Plasma Urea (PCK rats; PCK rats F, 1.0% Lixivaptan): 37.7 ± 10.5 mg/dL | Total Kidney Weight (PCK rats; PCK rats F, 1.0% Lixivaptan): 4.14 ± 2.46 g | 24 hr urine week 7 (PCK rats; PCK rats M, 0.5% Lixivaptan): 45.5 ± 9.1 mL | 24 hr urine week 10 (PCK rats; PCK rats M, 0.5% Lixivaptan): 53.5 ± 14.3 mL | % Kidney/Body Weight (PCK rats; PCK rats M, 0.5% Lixivaptan): 1.37 ± 0.45% | % Liver/Body Weight (PCK rats; PCK rats M, 0.5% Lixivaptan): 5.49 ± 0.44% | Kidney Cyst Score (PCK rats; PCK rats M, 0.5% Lixivaptan): 7.7 ± 1.7 % | Kidney Fibrosis Score (PCK rats; PCK rats M, 0.5% Lixivaptan): 1.8 ± 1.2% | Liver Cyst Score (PCK rats; PCK rats M, 0.5% Lixivaptan): 3.2 ± 1.6% | Liver Fibrois Score (PCK rats; PCK rats M, 0.5% Lixivaptan): 3.1 ± 1.1% | Liver Weight (PCK rats; PCK rats M, 0.5% Lixivaptan): 23.8 ± 2.3 g | Plasma Creatinine (PCK rats; PCK rats M, 0.5% Lixivaptan): 0.63 ± 0.07 mg/dL | Plasma Sodium (PCK rats; PCK rats M, 0.5% Lixivaptan): 147 ± 4 mEq/L | Plasma Urea (PCK rats; PCK rats M, 0.5% Lixivaptan): 32.2 ± 5.8 mg/dL | Total Kidney Weight (PCK rats; PCK rats M, 0.5% Lixivaptan): 5.97 ± 2.04 g | 24 hr urine week 7 (PCK rats; PCK rats M, 1.0% Lixivaptan): 53.9 ± 7.4 mL | 24 hr urine week 10 (PCK rats; PCK rats M, 1.0% Lixivaptan): 63.7 ± 10.1 mL | % Kidney/Body Weight (PCK rats; PCK rats M, 1.0% Lixivaptan): 1.47 ± 0.46% | % Liver/Body Weight (PCK rats; PCK rats M, 1.0% Lixivaptan): 5.60 ± 0.61% | Kidney Cyst Score (PCK rats; PCK rats M, 1.0% Lixivaptan): 12.0 ± 3.7 % | Kidney Fibrosis Score (PCK rats; PCK rats M, 1.0% Lixivaptan): 2.9 ± 1.3% | Liver Cyst Score (PCK rats; PCK rats M, 1.0% Lixivaptan): 5.8 ± 1.3% | Liver Fibrois Score (PCK rats; PCK rats M, 1.0% Lixivaptan): 4.2 ± 2.0% | Liver Weight (PCK rats; PCK rats M, 1.0% Lixivaptan): 22.5 ± 2.7 g | Plasma Creatinine (PCK rats; PCK rats M, 1.0% Lixivaptan): 0.67 ± 0.04 mg/dL | Plasma Sodium (PCK rats; PCK rats M, 1.0% Lixivaptan): 147 ± 1 mEq/L | Plasma Urea (PCK rats; PCK rats M, 1.0% Lixivaptan): 32.3 ± 5.0 mg/dL | Total Kidney Weight (PCK rats; PCK rats M, 1.0% Lixivaptan): 5.92 ± 1.95 g | improvement in cystic phenotype compared to control (PCK rats; PCK rats, 0.5% lixivaptan): 54% | increase in serum sodium (PCK rats; PCK rats, 0.5% lixivaptan): 1.6% | reduction in kidney weight as a percentage of body weight (relative kidney size) (PCK rats; [2]): 26% | reduction in liver cyst score (PCK rats; [2]): 39% | reduction in liver fibrosis score (PCK rats; [3]): 20.6% | reduction in ratio of liver weight vs. body weight (PCK rats; [3]): 5.2% | beneficial effect on kidney fibrosis score (PCK rats; PCK rats, 0.5% lixivaptan, p=0.12): 30% | increase in 24 h urine output (PCK rats; PCK rats, 0.5% lixivaptan, study week 3 (rats at 7 weeks of age)): 175% | increase in 24 h urine output (PCK rats; PCK rats, 0.5% lixivaptan, study week 6 (rats at 10 weeks of age)): 189% | effect on liver pathology (PCK rats; PCK rats, 1.0% lixivaptan): did not separate from control | improvement in cystic phenotype compared to control (PCK rats; PCK rats, 1.0% lixivaptan): 25% | increase in urine output (PCK rats; PCK rats, 1.0% lixivaptan, Study week 3): 223% | increase in urine output (PCK rats; PCK rats, 1.0% lixivaptan, Study week 6): 237% | % kidney weight/body weight (PCK rats; PCK rats, 0.5% lixivaptan): 1.2% | % kidney weight/body weight (PCK rats; PCK rats, 1.0% lixivaptan, all animals): 1.6% | % kidney weight/body weight (PCK rats; PCK rats, 1.0% lixivaptan, three outliers removed): 1.3% | reduction in serum creatinine (PCK rats; PCK rats, compared to control): 13.2%
